Results as given in US7259140B2, “Heparin-binding peptides and uses thereof” (Thomas Jefferson University, priority 2003, dated 2007).

Test system: anti-Factor Xa Activity of Unfractionated Heparin
Experiment: Anti-Factor Xa assay: neutralization of unfractionated heparin in citrate or plasma in vitro
Format: biochemical, human
Details: UFH 0.7 U/ml
Description: The ability of peptides such as (ARKKAAKA)3VLVLVLVL (SEQ ID NO:5) to neutralize the anti-Factor Xa activity of UFH and LMWH in vitro was tested using the Stachrom Heparin kit (Diagnostica Stago), a standard hematology laboratory assay used to measure the anti-Factor Xa activity of heparin. The assay was performed using the low molecular weight heparin enoxaparin sodium (Lovenox®, Aventis Pharmaceuticals, Inc.), unfractionated heparin (UFH), or the non-heparin glycosaminoglycan danaparoid sodium (Orgaran®, Organon Inc., West Orange, N.J.) in 0.32% citrate or in plasma anticoagulated with 0.32% citrate. Enoxaparin is commonly used clinically as a low molecular weight heparin (LMWH). Danaparoid is commonly used clinically as a non-heparin glycosaminoglycan anticoagulant. Currently, the only FDA approved drug to target UFH is protamine, which is not effective in vivo against LMWH or a non-heparin glycosaminoglycan such as danaparoid. Buffer and ATIII are added to form the heparin/ATIII complex, peptide is added, then Factor Xa, reporter dye substrate for Factor Xa activity, and stop solution, and the dye concentration is read at 405 nm. The absorbance of the dye increases with increasing Factor Xa activity, and thus is inversely proportional to the heparin (anti-Factor Xa activity) concentration. Peptides were tested in plasma obtained from three volunteers (A, B, and C). Platelet function inhibitors PG12 and theophylline were added to the blood immediately upon collection. […]

| Substance | Unfractionated Heparin Neutralized (1 μg/ml Peptide, A Plasma) | Unfractionated Heparin Neutralized (1 μg/ml Peptide, B Plasma) | Unfractionated Heparin Neutralized (1 μg/ml Peptide, C Plasma) | Unfractionated Heparin Neutralized (1 μg/ml Peptide, Citrate) | Unfractionated Heparin Neutralized (6 μg/ml Peptide, A Plasma) | Unfractionated Heparin Neutralized (6 μg/ml Peptide, B Plasma) | Unfractionated Heparin Neutralized (6 μg/ml Peptide, C Plasma) | Unfractionated Heparin Neutralized (6 μg/ml Peptide, Citrate) | Unfractionated Heparin Neutralized (12 μg/ml Peptide, A Plasma) | Unfractionated Heparin Neutralized (12 μg/ml Peptide, B Plasma) | Unfractionated Heparin Neutralized (12 μg/ml Peptide, C Plasma) | Unfractionated Heparin Neutralized (12 μg/ml Peptide, Citrate) |
| --- | --- | --- | --- | --- | --- | --- | --- | --- | --- | --- | --- | --- |
| VLVL(ARKKAAKA)3ARKKCAKA (VLVLARKKAAKAARKKAAKAARKKAAKAARKKCAKA; Fragment) | 0.240 ± 0.061 U/ml | 0.259 ± 0.063 U/ml | 0.233 ± 0.075 U/ml | 0.262 ± 0.101 U/ml | 0.574 ± 0.014 U/ml | 0.550 ± 0.061 U/ml | 0.559 ± 0.014 U/ml | 0.597 ± 0.034 U/ml | 0.618 ± 0.014 U/ml | 0.586 ± 0.001 U/ml | 0.526 ± 0.031 U/ml | 0.534 ± 0.056 U/ml |
| ARKKAAKAARKKAAKAARKKAAKAVLVLVL [(ARKKAAKA)3VLVLVL] | 0.249 ± 0.129 U/ml | 0.142 ± 0.040 U/ml | 0.114 ± 0.056 U/ml | 0.150 ± 0.023 U/ml | 0.667 ± 0.019 U/ml | 0.598 ± 0.016 U/ml | 0.572 ± 0.018 U/ml | 0.576 ± 0.060 U/ml | 0.570 ± 0.119 U/ml | 0.585 ± 0.005 U/ml | 0.575 ± 0.013 U/ml | 0.595 ± 0.021 U/ml |
